Activity calls are given as the source filed them. No cut-off for these calls is given here.
Experiments:
A549 [1] = test: Ratio of Gemcitabine IC50 to Compound IC50 for human A549 cells after 48 hrs by SRB assay; type: functional
MRC5 [2] = test: Ratio of Gemcitabine IC50 to Compound IC50 for human MRC5 cells after 48 hrs by SRB assay; type: functional
T-24 [3] = test: Ratio of Gemcitabine IC50 to Compound IC50 for human T24 cells after 48 hrs by SRB assay; type: functional
A549 [4] = test: Induction of H2O2 level in human A549 cells at 1 uM after 30 mins by flow cytometry; type: functional, cell-based
A549 [5] = test: Cytotoxicity against human A549 cells after 48 hrs by SRB assay; type: functional, cell-based; conditions: for IC50: A549, 48 h
MRC5 [6] = test: Cytotoxicity against human MRC5 cells after 48 hrs by SRB assay; type: functional, cell-based; conditions: for IC50: MRC5, 48 h
[7] = (§1) Cytotoxicity against human T24 cells after 48 hrs by SRB assay; type: functional, cell-based; conditions: T-24, 48 h
T-24 [8] = test: as §1; type: functional, cell-based
A549 [9] = test: Cytotoxicity against human A549 cells assessed as dose reduction index ratio treated at simultaneous combination at 0.6 fraction inhibition after 48 hrs by SRB assay in presence of alpha-lipoic acid; type: functional
A549 [10] = test: Cytotoxicity against human A549 cells assessed as dose reduction index ratio treated at simultaneous combination at 5:1 alpha-lipoic acid to compound ratio after 48 hrs by SRB assay in presence of alpha-lipoic acid; type: functional
A549 [11] = test: Cytotoxicity against human A549 cells assessed as dose reduction index ratio treated at sequential combination at 2:1 alpha-lipoic acid to compound ratio after 48 hrs by SRB assay in presence of alpha-lipoic acid; type: functional
A549 [12] = test: Cytotoxicity against human A549 cells assessed as dose reduction index ratio treated at sequential combination at 5:1 alpha-lipoic acid to compound ratio after 48 hrs by SRB assay in presence of alpha-lipoic acid; type: functional
MRC5 [13] = test: Cytotoxicity against human MRC5 cells assessed as dose reduction index ratio treated at sequential combination at 2:1 alpha-lipoic acid to compound ratio after 48 hrs by SRB assay in presence of alpha-lipoic acid; type: functional
MRC5 [14] = test: Cytotoxicity against human MRC5 cells assessed as dose reduction index ratio treated at sequential combination at 5:1 alpha-lipoic acid to compound ratio after 48 hrs by SRB assay in presence of alpha-lipoic acid; type: functional
MRC5 [15] = test: Cytotoxicity against human MRC5 cells assessed as dose reduction index ratio treated at simultaneous combination at 2:1 alpha-lipoic acid to compound ratio after 48 hrs by SRB assay in presence of alpha-lipoic acid; type: functional
MRC5 [16] = test: Cytotoxicity against human MRC5 cells assessed as dose reduction index ratio treated at simultaneous combination at 5:1 alpha-lipoic acid to compound ratio after 48 hrs by SRB assay in presence of alpha-lipoic acid; type: functional
A549 [17] = test: Induction of H2O2 level in human A549 cells at 1 uM after 5 to 30 mins by flow cytometry; type: functional, cell-based
A549 [18] = test: Cytotoxicity against human A549 cells treated at 2:1 and 5:1 alpha-lipoic acid to compound ratio after 48 hrs by SRB assay in presence of alpha-lipoic acid; type: functional, cell-based; conditions: A549, 48 h
A549 [19] = test: Cytotoxicity against human A549 cells treated at LA + compound sequent. compound for 24 hrs, LA + compound for 24 hrs additional, total 48 hrs 2:1 and 5:1 alpha-lipoic acid to compound ratio after 48 hrs by SRB assay in presence of alpha-lipoic acid; type: functional, cell-based
A549 [20] = test: Cytotoxicity against human A549 cells treated at LA + compound sequent. LA for 24 hrs), LA + GEM (24 hrs additional, total 48 hrs) 2:1 alpha-lipoic acid to compound ratio after 48 hrs by SRB assay in presence of alpha-lipoic acid; type: functional, cell-based
A549 [21] = test: Cytotoxicity against human A549 cells treated at LA + compound sequent. LA for 24 hrs), LA + GEM (24 hrs additional, total 48 hrs) 5:1 alpha-lipoic acid to compound ratio after 48 hrs by SRB assay in presence of alpha-lipoic acid; type: functional, cell-based
MRC5 [22] = test: Cytotoxicity against human MRC5 cells treated at 2:1 and 5:1 alpha-lipoic acid to compound ratio after 48 hrs by SRB assay in presence of alpha-lipoic acid; type: functional, cell-based; conditions: MRC5, 48 h
MRC5 [23] = test: Cytotoxicity against human MRC5 cells treated at LA + compound sequent. compound for 24 hrs, LA + compound for 24 hrs additional, total 48 hrs 2:1 and 5:1 alpha-lipoic acid to compound ratio after 48 hrs by SRB assay in presence of alpha-lipoic acid; type: functional, cell-based
MRC5 [24] = test: Cytotoxicity against human MRC5 cells treated at LA + compound sequent. LA for 24 hrs), LA + GEM (24 hrs additional, total 48 hrs) 2:1 alpha-lipoic acid to compound ratio after 48 hrs by SRB assay in presence of alpha-lipoic acid; type: functional, cell-based
MRC5 [25] = test: Cytotoxicity against human MRC5 cells treated at LA + compound sequent. LA for 24 hrs), LA + GEM (24 hrs additional, total 48 hrs) 5:1 alpha-lipoic acid to compound ratio after 48 hrs by SRB assay in presence of alpha-lipoic acid; type: functional, cell-based
[26] = Cytotoxicity against human T24 cells treated at 2:1 and 5:1 alpha-lipoic acid to compound ratio after 48 hrs by SRB assay in presence of alpha-lipoic acid; type: functional, cell-based; conditions: T-24, 48 h
[27] = Cytotoxicity against human T24 cells treated at LA + compound sequent. compound for 24 hrs, LA + compound for 24 hrs additional, total 48 hrs 2:1 and 5:1 alpha-lipoic acid to compound ratio after 48 hrs by SRB assay in presence of alpha-lipoic acid; type: functional, cell-based; conditions: T-24
[28] = Cytotoxicity against human T24 cells treated at LA + compound sequent. LA for 24 hrs), LA + GEM (24 hrs additional, total 48 hrs) 2:1 alpha-lipoic acid to compound ratio after 48 hrs by SRB assay in presence of alpha-lipoic acid; type: functional, cell-based; conditions: T-24
[29] = Cytotoxicity against human T24 cells treated at LA + compound sequent. LA for 24 hrs), LA + GEM (24 hrs additional, total 48 hrs) 5:1 alpha-lipoic acid to compound ratio after 48 hrs by SRB assay in presence of alpha-lipoic acid; type: functional, cell-based; conditions: T-24
A549 [30] = test: Cytotoxicity against human A549 cells assessed as combination index treated at 2:1 alpha-lipoic acid to compound ratio after 48 hrs by SRB assay in presence of alpha-lipoic acid; type: functional
A549 [31] = test: Cytotoxicity against human A549 cells assessed as inhibition fraction treated at 2:1 alpha-lipoic acid to compound ratio after 48 hrs by SRB assay in presence of alpha-lipoic acid; type: functional
A549 [32] = test: Cytotoxicity against human A549 cells assessed as combination index treated at 5:1 alpha-lipoic acid to compound ratio after 48 hrs by SRB assay in presence of alpha-lipoic acid; type: functional
A549 [33] = test: Cytotoxicity against human A549 cells assessed as inhibition fraction treated at 5:1 alpha-lipoic acid to compound ratio after 48 hrs by SRB assay in presence of alpha-lipoic acid; type: functional
A549 [34] = test: (§2) Cytotoxicity against human A549 cells assessed as combination index treated at sequential combination LA + compound sequent. compound for 24 hrs, LA + compound for 24 hrs additional, total 48 hrs 2:1 and 5:1 alpha-lipoic acid to compound ratio after 48 hrs by SRB assay in presence of alpha-lipoic acid; type: functional
A549 [35] = test: as §2, with “inhibition fraction” for “combination index”; type: functional
A549 [36] = test: Cytotoxicity against human A549 cells assessed as inhibition fraction treated at sequential combination LA + compound sequent. compound for 24 hrs, LA + compound for 24 hrs additional, total 48 hrs 2:1 and 5:1 compound to GEM ratio after 48 hrs by SRB assay in presence of GEM; type: functional
A549 [37] = test: Cytotoxicity against human A549 cells assessed as dose reduction index ratio treated at simultaneous combination at 0.8 fraction inhibition after 48 hrs by SRB assay in presence of alpha-lipoic acid; type: functional
A549 [38] = test: Cytotoxicity against human A549 cells assessed as dose reduction index ratio treated at sequential combination at 2:1 compound to GEM ratio after 48 hrs by SRB assay in presence of GEM; type: functional
A549 [39] = test: Cytotoxicity against human A549 cells assessed as dose reduction index ratio treated at sequential combination at 5:1 compound to GEM ratio after 48 hrs by SRB assay in presence of GEM; type: functional
A549 [40] = test: Induction of H2O2 level in human A549 cells at 1 uM after 5 mins by flow cytometry; type: functional, cell-based
A549 [41] = test: Cytotoxicity against human A549 cells assessed as inhibition fraction treated at 2:1 compound to GEM ratio after 48 hrs by SRB assay in presence of GEM; type: functional
A549 [42] = test: Cytotoxicity against human A549 cells assessed as inhibition fraction treated at 5:1 compound to GEM ratio after 48 hrs by SRB assay in presence of GEM; type: functional

Nc1ccn([C@@H]2O[C@H](COC(=O)CCCC[C@@H]3CCSS3)[C@@H](O)C2(F)F)c(=O)n1
Ratio (A549 [1]): 1.54
Ratio (MRC5 [2]): 1.24
Ratio (T-24 [3]): 1.3
Activity (A549 [4]): Active
inhibition (A549 [5]): Dose-dependent effect
IC50 (A549 [5]): < 4.4 nM
inhibition (MRC5 [6]): Dose-dependent effect
IC50 (MRC5 [6]): 5 nM
IC50 [7]: 5.3 nM
inhibition (T-24 [8]): Dose-dependent effect

Nc1ccn([C@@H]2O[C@H](CO)[C@@H](O)C2(F)F)c(=O)n1 [GEMCITABINE]
Inhibition_index (A549 [9]): 5.76
Inhibition_index (A549 [10]): 4.22
Inhibition_index (A549 [11]): 1.71
Inhibition_index (A549 [12]): 1.67
CI (MRC5 [13]): 2.06
CI (MRC5 [14]): 2.73
CI (MRC5 [15]): 8.15
CI (MRC5 [16]): 7.88
Activity (A549 [17]): inactive
inhibition (A549 [5]): Dose-dependent effect
IC50 (A549 [5]): 6.8 nM
IC50 (A549 [18]): < 3.9 nM
IC50 (A549 [19]): 3.9 nM
IC50 (A549 [20]): 29 nM
IC50 (A549 [21]): > 1000 nM
inhibition (MRC5 [6]): Dose-dependent effect
IC50 (MRC5 [6]): 6.3 nM
IC50 (MRC5 [22]): < 3.9 nM
IC50 (MRC5 [23]): < 3.9 nM
IC50 (MRC5 [24]): 21.6 nM
IC50 (MRC5 [25]): 6.8 nM
IC50 [7]: 6.9 nM
inhibition (T-24 [8]): Dose-dependent effect
IC50 [26]: < 3.9 nM
IC50 [27]: < 3.9 nM
IC50 [28]: 18 nM
IC50 [29]: 17 nM
CI (A549 [30]): <1
Ratio (A549 [31]): 0.6
CI (A549 [32]): >1
Ratio (A549 [33]): 0.1
CI (A549 [34]): >1
Ratio (A549 [35]): 0.65

O=C(O)CCCCC1CCSS1 (stereo not drawn) [LIPOIC ACID, ALPHA]
Ratio (A549 [36]): 0.85
Inhibition_index (A549 [37]): 1572.29
Inhibition_index (A549 [38]): 1243.87
Inhibition_index (A549 [39]): 488.47
Activity (A549 [40]): Active
inhibition (A549 [5]): Dose-dependent effect
IC50 (A549 [5]): > 100000 nM
inhibition (MRC5 [6]): Dose-dependent effect
IC50 (MRC5 [6]): > 100000 nM
IC50 [7]: > 100000 nM
inhibition (T-24 [8]): Dose-dependent effect
Ratio (A549 [41]): 0.8
Ratio (A549 [42]): 0.9
